The values below are quoted from earlier work in PubChem BioAssay AID493017.

pIC50, pKd, pKi: −log10 of the molar value.

The target in the first data set is Estrogen receptor (Homo sapiens) (UniProt P03372). Put plainly: PubChem AID 493017. The note with it: WOMBAT literature affinities, multiple human targets; ERalpha; gene ESR1; NCBI gene 2099.
Chain of Estrogen receptor (Homo sapiens) (P03372 whole entry, looked up): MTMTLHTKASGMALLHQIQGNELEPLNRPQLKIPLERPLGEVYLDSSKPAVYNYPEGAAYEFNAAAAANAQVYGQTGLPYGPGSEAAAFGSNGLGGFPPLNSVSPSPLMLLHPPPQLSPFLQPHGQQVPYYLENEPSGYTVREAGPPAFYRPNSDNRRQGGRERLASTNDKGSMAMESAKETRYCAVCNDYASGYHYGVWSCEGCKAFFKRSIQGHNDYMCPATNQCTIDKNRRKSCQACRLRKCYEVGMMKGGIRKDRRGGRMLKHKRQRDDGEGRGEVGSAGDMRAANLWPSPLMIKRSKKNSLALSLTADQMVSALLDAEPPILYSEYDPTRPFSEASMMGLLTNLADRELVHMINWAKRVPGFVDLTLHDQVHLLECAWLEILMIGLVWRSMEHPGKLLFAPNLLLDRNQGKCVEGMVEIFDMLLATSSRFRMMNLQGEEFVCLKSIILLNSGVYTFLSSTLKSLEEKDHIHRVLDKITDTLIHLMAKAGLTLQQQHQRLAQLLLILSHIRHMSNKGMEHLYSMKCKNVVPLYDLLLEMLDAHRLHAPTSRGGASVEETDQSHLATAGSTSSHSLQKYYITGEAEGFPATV
Regarding `CCNC1=C(c2ccc(O)cc2)C(=O)c2cc(O)cc(O)c21`, the pIC50 was 5.57. As for `CCC(=C(c1ccccc1)c1ccnn1OCc1ccccc1)c1ccccc1`, the pIC50 was 5.00.

For the compound `CCNC(=O)CC1C[C@]2(C)C(O)CCC2C2CCc3cc(O)ccc3C12` (stereo partly drawn), the pIC50 is 5.74. `CCC(=C(c1ccccc1)c1cnn(OCCCN(C)C)c1)c1cccs1`: the pIC50 is 6.70.

Consider `Oc1ccc(-n2cc3ccccc3n2)cc1`, for which the pIC50 is 5.70. For the compound `CCc1nc(-c2ccc(O)cc2)nc(-c2ccc(O)cc2)c1-c1ccc(O)cc1`, the pIC50 was 9.20. Regarding `CCc1nc(-c2ccc(O)cc2)c(-c2ccc(O)cc2)nc1CC`, the pIC50 was 7.68. `CCC(=C(c1ccccc1)c1ccccc1)c1cnn(OCCCN(C)C)c1`: the pIC50 is 5.00. Consider `CCCc1nc(-c2ccc(O)cc2)c(CCC)nc1-c1ccc(O)cc1`, for which the pIC50 was 9.96.

Take `CCC(=C(c1ccccc1)c1ccnn1O)c1ccccc1`: the negative logarithm of the IC50 (pIC50) was 5.00. Turning to `CCc1nc(-c2ccc(O)cc2)c(-c2ccc(O)cc2)nc1-c1ccc(O)cc1`, the pIC50 was 8.62. Turning to `C=C[C@]12CCC(O)CC1=CCC1C3CCC(O)[C@@]3(C)CCC12` (stereo partly drawn), the pIC50 was 5.65.

As to `CCC(=C(c1ccccc1)c1cnn(OCCN(C)C)c1)c1ccccc1`, the pIC50 is 5.55. On to `Oc1ccc2nn(-c3ccccc3)c(Cl)c2c1`, for which the negative logarithm of the IC50 (pIC50) is 5.87. For the compound `O=C(c1ccc(OCCN2CCCCC2)cc1)c1c(-c2ccc(O)cc2)sc2ccc(O)cc12`, the pIC50 was 6.80. Turning to `Oc1ccc(-n2cc3ccc(O)c(Br)c3n2)cc1`, the pIC50 is 5.70. Turning to `COc1ccc2c(C(=O)c3ccc(OCCN4CCCCC4)cc3)c(-c3ccc(O)cc3)sc2c1`, the pIC50 was 5.70.

For `CCC(=C(c1ccc(O)cc1)c1ccc(OCCN(C)CCON=Cc2ccc(O)c(C(N)=O)c2)cc1)c1ccccc1`, the pIC50 is 6.52.

Turning to `C[C@]12CCC3c4ccc(O)cc4CCC3C1CC[C@@]2(O)CCNC(=O)CBr` (stereo partly drawn), the pIC50 is 5.80. Turning to `CCc1c(Cc2ccccc2)nc(-c2ccc(O)cc2)nc1-c1ccc(O)cc1`, the negative logarithm of the IC50 (pIC50) was 8.68. `CCC(=C(c1ccccc1)c1ccnn1OCCCN(C)C)c1ccccc1`: the pIC50 was 5.85.

Still in this data set, the particulars now being: WOMBAT literature affinities, multiple human targets; binding affinity Kd; ERalpha; gene ESR1; NCBI gene 2099.
With `CCC1c2ccc(O)cc2C(C)C1c1ccc(O)cc1` (stereo not drawn), the pKd was 7.82. For the compound `CC1(C)CC(c2ccc(O)cc2)=C(c2ccc(O)cc2)CC1(C)C`, the pKd was 8.70. For the compound `C[C@]12CC(O)C3c4ccc(O)cc4CCC3C1CCC2O` (stereo partly drawn), the pKd was 7.79. `CCc1c(-c2ccc(O)cc2)nn(-c2ccc(O)cc2)c1-c1ccc(O)cc1`: the pKd is 9.08. With `O=c1c2cc(O)ccc2c2ccc3cc(O)ccc3c2n1-c1ccc(OCCN2CCCCC2)cc1`, the pKd was 5.52. Regarding `CCCC1C(c2ccc(O)cc2)=C(CC)c2ccc(O)cc21` (stereo not drawn), the pKd was 8.78. Regarding `O=C1c2cc(O)ccc2C2CC1c1ccc(O)cc1C2=O`, the pKd is 5.30. With `CON=Cc1ccc(-c2ccccc2)c(-c2ccccc2)c1O`, the negative logarithm of the Kd (pKd) was 5.60. For the compound `COc1ccc2c(c1)CN(c1ccc(OCCN3CCCCC3)cc1)C1=C2CCc2cc(OC)ccc21`, the pKd is 5.52.

Consider `CCc1c(-c2ccc(O)cc2)oc(-c2ccc(O)cc2)c1-c1ccc(O)cc1`, for which the pKd is 9.67. Regarding `CC1c2ccc(O)cc2C2CC1c1cc(O)ccc1C2C` (stereo not drawn), the pKd is 5.37. Take `CCCc1c(-c2ccc(O)cc2)nn(-c2ccc(O)cc2)c1C1CCCC1`: the pKd is 5.08.

For the compound `C[C@]12CCC3c4ccc(O)cc4CCC3C1C(O)CC2O` (stereo partly drawn), the pKd is 7.92.

The same data set, now with this note: WOMBAT literature affinities, multiple human targets; binding affinity Ki; ERalpha; gene ESR1; NCBI gene 2099.
For the compound `Oc1ccc2c(c1)CCC21C=C(c2ccc(OCCN3CCCC3)cc2)c2cc(O)ccc21` (stereo not drawn), the pKi is 7.67. Turning to `CCC(=C(Cc1ccc(OCCN2CCOCC2)cc1)c1ccccc1)c1ccccc1`, the pKi is 5.61. In the case of `Oc1ccc(-c2c(-c3cccc(O)c3)nn3c(C(F)(F)F)cc(C(F)(F)F)nc23)cc1`, the pKi is 5.70. Regarding `Oc1ccc(-c2c(-c3ccccc3)nn3cccnc23)cc1`, the pKi is 5.70.

On to `Oc1ccc2c(c1)CCC21C=C(c2ccc(OCCN3CCCCC3)cc2)c2cc(O)ccc21` (stereo not drawn), for which the pKi was 7.60. `O=C(O)c1ccc(C2=C(c3ccc(O)cc3)Cc3cc(O)ccc32)cc1`: the pKi is 5.55. For `Oc1ccc(C2=C(c3ccccc3)c3ccc(O)cc3C2)cc1`, the pKi is 7.20. As for `CC(C)c1cc(C(C)C)n2nc(-c3ccc(O)cc3)c(-c3cccc(O)c3)c2n1`, the pKi was 5.70. Turning to `Cc1nc2c(-c3ccccc3)c(-c3ccc(O)cc3)nn2c(C)c1C`, the negative-log Ki (pKi) is 5.70. For `Oc1ccc2c3c(sc2c1)Cc1cccc(O)c1C3c1ccc(OCCN2CCCCC2)cc1` (stereo not drawn), the pKi was 8.59. Regarding `CCC1=C(c2ccc(O)cc2)C(C(=O)Nc2ccc(OCCN(C)C)cc2)c2cc(O)ccc21` (stereo not drawn), the pKi is 5.85.

A further data set has as its system WOMBAT literature affinities, multiple human targets. Description: PubChem AID 493017. To be noted: HIV-1 P; gene HIV-1 protease.
Take `Cc1c(O)cccc1C(=O)NC(CC(C)C)C(=O)N(Cc1ccccc1)N(CCO)C(=O)C1CCCN1C(=O)OC(C)(C)C` (stereo not drawn): the pIC50 is 5.30. With `CSCCC(NC(=O)C(CCO)N(Cc1ccccc1)C(=O)C(CC(C)C)NC(=O)OCc1ccccc1)C(=O)NC(C)(C)C` (stereo not drawn), the pIC50 was 6.44. As for `CC(C)(C)OC(=O)NC(Cc1ccccc1)C(O)C[C@]1(Cc2ccccc2)NC=C(C2c3ccccc3C3NC(=O)OC32)C1=O` (stereo partly drawn), the pIC50 is 8.60.

In the case of `CC(C)(C)OC(=O)NC(Cc1ccccc1)C(O)C(O)C(Cc1ccccc1)NC(=O)OC(C)(C)C` (stereo not drawn), the pIC50 is 7.92.

Take `CCCC1(c2ccccc2)CC(O)=C(SCCc2ccccc2)C(=O)O1` (stereo not drawn): the pIC50 was 5.29. For the compound `Cc1cc(SC2=C(O)CC(CCc3ccc(O)cc3)(c3ccc(O)cc3)OC2=O)c(C(C)(C)C)cc1CO` (stereo not drawn), the pIC50 was 6.92. Consider `CC(=O)NC(C(=O)NC(Cc1ccccc1)C(O)C(Cc1ccccc1)NC(=O)C(NC(C)=O)C(C)C)C(C)C` (stereo not drawn), for which the pIC50 is 7.92. Regarding `O=c1oc(-c2ccccc2)cc(O)c1Sc1ccccc1`, the pIC50 is 5.51.

With `O=C1OC2(CCCc3ccccc32)CC(O)=C1SCc1ccccc1` (stereo not drawn), the pIC50 is 5.64.

On to `Cc1cc(O)cc(C)c1CNC(=O)C(Cc1ccccc1)CC(O)CN1CCN(C(=O)c2cccnc2)CC1C(=O)NC(C)(C)C` (stereo not drawn), for which the pIC50 is 8.09. Turning to `CC(C)(C)OC(=O)NC(Cc1ccccc1)C(O)CC(Cc1ccccc1)C(=O)NCC1CCCCC1` (stereo not drawn), the pIC50 was 4.52. For `O=C1OC(c2ccccc2)CC(O)=C1SCCc1ccccc1` (stereo not drawn), the pIC50 is 5.68. With `Cc1cc(SC2=C(O)CC(CCc3ccc(O)cc3)(C(C)C)OC2=O)c(C(C)(C)C)cc1OS(C)(=O)=O` (stereo not drawn), the pIC50 is 8.66. On to `CC(=O)NC(CO)C(=O)NC(CC(C)C)C(=O)NC(CC(N)=O)C(=O)NC(Cc1ccccc1)C(O)CN1CCCC1C(=O)OC(C)(C)C` (stereo not drawn), for which the pIC50 was 7.85. `O=C1OC(CCc2ccccc2)(c2ccccc2)CC(O)=C1SCCc1ccccc1` (stereo not drawn): the pIC50 was 7.29.

As for `CSCCC(NC(=O)C(CO)N(Cc1ccccc1)Cc1ccccc1)C(=O)NC(C)(C)C` (stereo not drawn), the pIC50 was 5.65. For `O=C(NC1c2ccccc2CC1O)C(Cc1ccccc1)CC(O)CC(Cc1ccccc1)C(=O)NC1c2ccccc2CC1O` (stereo not drawn), the pIC50 was 9.16.

For the compound `CC(C)(C)NC(=O)c1ccccc1CCC(O)Cc1ccc2ccccc2c1C(=O)NC(C)(C)C` (stereo not drawn), the pIC50 is 5.96.

For `CC(C)(C)OC(=O)NC(Cc1ccccc1)C(O)CNCC(O)C(Cc1ccccc1)NC(=O)OC(C)(C)C` (stereo not drawn), the negative-log IC50 (pIC50) was 6.90.

Still in this data set, the particulars now being: HIV-1 RT; gene HIV-1 reverse transcriptase.
Regarding `O=C1Nc2ccc(Cl)cc2[C@@](C#CC2CC2)(C(F)(F)F)N1`, the pIC50 is 7.51. Turning to `Cc1c(Sc2ccccc2)n(CC=Cc2cccnc2)c(=O)[nH]c1=O`, the pIC50 is 7.00. For `CCc1c(Sc2cc(C)cc(C)c2)n(CC=Cc2ccco2)c(=O)[nH]c1=O`, the pIC50 was 7.40. Turning to `COC(=O)c1c(Br)c(OC)c2c(c1-c1c3c(c(OC)c(Br)c1C(=O)OC)OCO3)OCO2`, the negative logarithm of the IC50 (pIC50) is 5.72. For `CCC1(CC)OC(=O)Nc2ccc(Cl)cc21`, the pIC50 was 7.78. In the case of `CCOCn1c(Sc2ccccc2)c(CC)c(=O)[nH]c1=O`, the pIC50 was 7.72. Take `O=C1c2ccccc2C(=O)N1CCOC(=S)N(C(=O)c1cccnc1Cl)c1ccc(Cl)cc1`: the pIC50 was 5.70.

Consider `Cc1cccc(NC(=S)NC(C)c2ccccc2)n1` (stereo not drawn), for which the pIC50 is 5.77. With `CCOCn1c(Sc2cc(C)cc(C)c2)c(CC)c(=O)[nH]c1=S`, the pIC50 is 8.36. With `CCCc1cc(=O)oc2c3c(c4c(c12)OC(C)(C)C=C4)OC(CC)C(C)C3O` (stereo not drawn), the negative-log IC50 (pIC50) is 5.49. With `Cc1cc(C)cc(Sc2c(C)c(=O)[nH]c(=O)n2COCCO)c1`, the negative-log IC50 (pIC50) was 6.58. On to `O=C1Nc2ccc(Cl)cc2[C@@](C#CC2CC2)(C(F)(F)F)C1OCc1ccccc1` (stereo partly drawn), for which the pIC50 was 6.36. For `Cc1c(Sc2cccc(O)c2)n(COCCO)c(=O)[nH]c1=O`, the pIC50 is 4.09.

As to `CCCOCn1c(Sc2ccccc2)c(C)c(=O)[nH]c1=O`, the negative-log IC50 (pIC50) was 5.44. For the compound `CCc1c(Cc2ccccc2)n(CCOC)c(=O)[nH]c1=O`, the pIC50 was 6.60.

On to `CCCCCCCCOC(=O)c1cc2c([nH]c3ccccc32)c(-c2ccc3c(n2)C(=O)C(NC(C)=O)=CC3=O)n1`, for which the pIC50 is 5.52. Take `COC(=O)CCCC=C(c1cc(C)c(OC)c(C(=O)OC)c1)c1cc(C)c(OC)c(C(=O)OC)c1`: the pIC50 was 6.00. Turning to `CC1C(=O)Nc2ccc(Cl)cc2S(=O)(=O)N1Cc1cc(Cl)cc(Cl)c1` (stereo not drawn), the negative-log IC50 (pIC50) was 5.67. Take `CCOC(=O)c1cccn1S(=O)(=O)c1cc(C)ccc1[N+](=O)[O-]`: the pIC50 is 5.30. As to `CCN1c2ncc(CSc3ccncc3)cc2C(=O)N(C)c2c(C)cc(Cl)nc21`, the pIC50 was 8.52.

With `Cc1ccc2c(c1)[C@@](C#CC1CC1)(C(F)(F)F)OC(=O)N2`, the pIC50 was 9.88.

With `CC(C)c1c(Sc2ccccc2)n(COCc2ccccc2)c(=S)[nH]c1=O`, the pIC50 is 8.17. For `CC1O[C@](C#CC2CC2)(C(F)(F)F)c2cc(Cl)ccc2NC1=O` (stereo partly drawn), the pIC50 was 6.60. In the case of `CC(C)C#C[C@@]1(C(F)(F)F)NC(=O)Nc2ccc(F)c(F)c21`, the pIC50 was 5.82.

The term pIC50 denotes the negative decadic logarithm of the IC50, by convention in mol/L. One may read the pKd as −log10 of the Kd, conventionally taken in molar units. One may read the pKi as the negative decadic logarithm of the Ki, by convention in mol/L.
